In brackets after ≈: the same amount, converted by molar mass. One block for each compound: values may come before it.
Key:
Experiment in all cases: ≥ marks a high value that may be exact or a test limit, other limits are often not marked, values filed in µg/mL are converted to µM
[1] = test system: Escherichia coli PCM 2057
[2] = test system: Staphylococcus aureus PCM 1944
[3] = test system: Escherichia coli JM109
[4] = test system: Staphylococcus aureus ATCC 6538P
[5] = test system: Staphylococcus aureus
[6] = test system: Bacillus cereus ATCC 11778
[7] = test system: Enterococcus faecalis ATCC 29212
[8] = test system: Escherichia coli ATCC 25922
[9] = test system: Escherichia coli ATCC 35218
[10] = test system: Escherichia coli O157
[11] = test system: Micrococcus luteus ATCC 9341
[12] = test system: Pseudomonas aeruginosa ATCC 9027
[13] = test system: Salmonella enterica subsp. arizonae ATCC 13314
[14] = test system: Staphylococcus epidermidis ATCC 12228
[15] = test system: Streptococcus pyogenes ATCC 19615
[16] = test system: Acinetobacter baumannii NM109
[17] = test system: Acinetobacter baumannii NM124
[18] = test system: Acinetobacter baumannii NM35
[19] = test system: Acinetobacter baumannii NM75
[20] = test system: Acinetobacter baumannii NM8
[21] = test system: Candida albicans ATCC 90028
[22] = test system: Cutibacterium acnes ATCC 11828
[23] = test system: Cutibacterium acnes ATCC 15725
[24] = test system: Cutibacterium acnes ATCC 18380
[25] = test system: Cutibacterium acnes ATCC 29903
[26] = test system: Cutibacterium acnes ATCC 31766
[27] = test system: Cutibacterium acnes ATCC 32548
[28] = test system: Cutibacterium acnes ATCC 33257
[29] = test system: Cutibacterium acnes ATCC 50247
[30] = test system: Escherichia coli ATCC 25726
[31] = test system: Staphylococcus aureus ATCC 25923
[32] = test system: Pseudomonas aeruginosa PAK
[33] = test system: Streptococcus gordonii Challis DL1
[34] = test system: Streptococcus mitis ATCC 903
[35] = test system: Streptococcus mutans UA159
[36] = test system: Streptococcus sanguinis NY101
[37] = test system: Bacillus subtilis ATCC 6633
[38] = test system: Candida albicans
[39] = test system: Escherichia coli NIHJ JC-2
[40] = test system: Staphylococcus aureus FDA 209P JC-1

MIC [6]: ≥ 150 µM
MIC [7]: > 150 µM
MIC [8]: > 150 µM
MIC [9]: ≥ 150 µM
MIC [10]: ≥ 150 µM
MIC [11]: ≥ 150 µM
MIC [12]: > 150 µM
MIC [13]: ≥ 150 µM
MIC [14]: > 150 µM
MIC [15]: ≥ 150 µM
Structure (SMILES): CC(C)C[C@H](NC(=O)[C@H](CC(C)C)NC(=O)[C@H](CCC(N)=O)NC(=O)[C@H](Cc1ccc(O)cc1)NC(=O)[C@H](CCCN=C(N)N)NC(=O)CNC(=O)[C@H](C)NC(=O)[C@H](C)NC(=O)[C@@H](NC(=O)[C@H](CO)NC(=O)[C@H](Cc1ccc(O)cc1)NC(=O)[C@@H](NC(=O)[C@H](CCCCN)NC(=O)[C@H](Cc1ccc(O)cc1)NC(=O)[C@H](CCCN=C(N)N)NC(=O)[C@@H]1CCCN1C(=O)[C@H](CC(C)C)NC(=O)[C@H](Cc1ccc(O)cc1)NC(=O)[C@@H](NC(=O)[C@@H](N)CCCCN)C(C)C)C(C)C)[C@@H](C)O)C(N)=O [KVYLPRYKVYSTAAGRYQLL]

MIC [16]: 12.5 µM (≈ 23.5 µg/mL)
MIC [17]: 12.5 µM (≈ 23.5 µg/mL)
MIC [18]: 6 µM (≈ 11.3 µg/mL)
MIC [19]: 12.5 µM (≈ 23.5 µg/mL)
MIC [20]: 6 µM (≈ 11.3 µg/mL)
MIC [21]: ≥ 50 µM
MIC [22]: 12.5 µM (≈ 23.5 µg/mL)
MIC [23]: 12.5 µM (≈ 23.5 µg/mL)
MIC [24]: ≥ 50 µM
MIC [25]: 25 µM (≈ 47.1 µg/mL)
MIC [26]: 6 µM (≈ 11.3 µg/mL)
MIC [27]: 12.5 µM (≈ 23.5 µg/mL)
MIC [28]: 12.5 µM (≈ 23.5 µg/mL)
MIC [29]: 6 µM (≈ 11.3 µg/mL)
MIC [30]: 12.5 µM (≈ 23.5 µg/mL)
MIC [31]: 12.5 µM (≈ 23.5 µg/mL)
Structure (SMILES): CC[C@H](C)[C@H](NC(=O)[C@@H](NC(=O)CN)C(C)C)C(=O)N[C@@H](CCCCN)C(=O)N[C@@H](CO)C(=O)N[C@H](C(=O)N[C@@H](CC(C)C)C(=O)N[C@@H](CCCCN)C(=O)NCC(=O)N[C@H](C(=O)N[C@@H](C)C(=O)N[C@@H](CCCCN)C(=O)N[C@H](C(=O)N[C@H](C(=O)N[C@@H](C)C(=O)N[C@@H](CC(C)C)C(=O)NCC(=O)N[C@@H](CCSC)C(=O)N[C@@H](CC(C)C)C(N)=O)C(C)C)[C@@H](C)O)C(C)C)C(C)C [GVIKSVLKGVAKTVALGML]

MIC [37]: 0.79 µM (≈ 2 µg/mL)
MIC [38]: > 51.4 µM
MIC [39]: 13.4 µM (≈ 34 µg/mL)
MIC [40]: 3.16 µM (≈ 7.99 µg/mL)
Structure (SMILES): CC[C@H](C)[C@H](NC(=O)CNC(=O)[C@H](C)NC(=O)[C@H](CC(C)C)NC(=O)[C@@H](NC(=O)[C@@H]1CCCN1C(=O)[C@H](CC(C)C)NC(=O)[C@@H](N)Cc1ccccc1)C(C)C)C(=O)N[C@@H](C)C(=O)N[C@@H](C)C(=O)N[C@@H](CCCCN)C(=O)N[C@H](C(=O)N[C@H](C(=O)N1CCC[C@H]1C(=O)N[C@@H](C)C(=O)N[C@@H](CC(C)C)C(=O)N[C@@H](Cc1ccccc1)C(=O)N[C@H]1CSSC[C@@H](C(=O)O)NC(=O)[C@H](CCCCN)NC(=O)[C@H](CCCCN)NC(=O)[C@H]([C@@H](C)O)NC(=O)[C@H]([C@@H](C)CC)NC(=O)[C@H](CCCCN)NC1=O)C(C)C)C(C)C [FLPVLAGIAAKVVPALFCKITKKC]

Further lines, the compound ahead of its results:

Structure (SMILES): CC[C@H](C)[C@H](NC(=O)[C@H](CC(N)=O)NC(=O)[C@@H](NC(=O)[C@H](C)N)C(C)C)C(=O)N1CCC[C@H]1C(=O)N[C@@H](Cc1ccccc1)C(=O)N[C@@H](CCCCN)C(=O)N[C@H](C(=O)N[C@@H](Cc1cnc[nH]1)C(=O)N[C@@H](Cc1ccccc1)C(=O)N[C@@H](CCCN=C(N)N)C(=O)O)C(C)C [AVNIPFKVHFR]
MIC [1]: ≥ 753 µM
MIC [2]: ≥ 753 µM

Structure (SMILES): CC[C@H](C)[C@H](NC(=O)[C@H](C)NC(=O)[C@H](CC(C)C)NC(=O)[C@H](CS)NC(=O)[C@H](Cc1cnc[nH]1)NC(=O)[C@H](C)N)C(=O)NCC(=O)N[C@@H](CCCN=C(N)N)C(=O)N[C@@H](CCCN=C(N)N)C(N)=O [AHCLAIGRR]
MIC [3]: 16.1 µM
MIC [4]: 6.02 µM
MIC [5]: > 64.2 µM

Structure (SMILES): CC[C@H](C)[C@H](N)C(=O)N[C@@H](CCCCN)C(=O)N[C@@H](CCC(N)=O)C(=O)N[C@@H](CC(C)C)C(=O)N[C@@H](CC(C)C)C(=O)N[C@@H](Cc1cnc[nH]1)C(=O)N[C@@H](Cc1ccccc1)C(=O)N[C@@H](Cc1ccccc1)C(=O)N[C@@H](CCC(N)=O)C(=O)N[C@@H](CCCN=C(N)N)C(=O)N[C@@H](Cc1ccccc1)C(=O)NCC(=O)NCC(=O)NCC(=O)N[C@@H](Cc1ccccc1)C(=O)N[C@H](C(=O)N[C@@H](CCCCN)C(=O)N[C@@H](Cc1cnc[nH]1)C(=O)N[C@@H](Cc1ccccc1)C(=O)N[C@H](C(=O)N[C@@H](Cc1cnc[nH]1)C(=O)N[C@@H](CCCN=C(N)N)C(=O)N[C@@H](Cc1ccccc1)C(N)=O)[C@@H](C)CC)[C@@H](C)CC [IKQLLHFFQRFGGGFIKHFIHRF]
MIC [32]: ≥ 43.5 µM
MIC [5]: 21.7 µM (≈ 62.5 µg/mL)
MIC [33]: 11.1 µM (≈ 32 µg/mL)
MIC [34]: 5.57 µM (≈ 16 µg/mL)
MIC [35]: 2.78 µM (≈ 8 µg/mL)
MIC [36]: 11.1 µM (≈ 32 µg/mL)
